Each structure is given as a SMILES string.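 Method: 48-hour compound exposure of cells in 96-well plates, five concentrations, linear interpolation of endpoints. TGI: total growth inhibition.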 A value given as a limit tells only on which side of the number the result lay.

Test systems include 786-0 renal; COLO 205 colon; HCT-116 colon; HS 578T breast; MDA-MB-231 breast; MOLT-4 leukemia; RXF 393 renal; SF-295 CNS; SW-620 colon; UACC-62 melanoma.
Common to all, as to assay: DTP human tumour cell line panel, 48 h

What is called TGI is the concentration at which net growth stops. The low end stands for greater sensitivity of the cells, the high end for lower sensitivity of the cells. `Cc1cc(N(C)C)c2ccccc2[n+]1CCCCCCCCCC[n+]1c(C)cc(N(C)C)c2ccccc21`: the TGI in the test on 786-0 renal is 19.5 µM; with COLO 205 colon it was 6.07 µM; in the test with HCT-116 colon, 12.4 µM; in the test with HS 578T breast, over 95.3 µM; in the test on MDA-MB-231 breast it was 6.15 µM; in the test with MOLT-4 leukemia, 13.8 µM. For the same compound, the TGI stood at 35 µM with RXF 393 renal, 8.95 µM in the test on SF-295 CNS, 16.5 µM in the test on SW-620 colon and 3.35 µM with UACC-62 melanoma.
Take `Nc1ncnc2c1ccn2C/C=C/CO`: the TGI with 786-0 renal, in the test on COLO 205 colon, with HCT-116 colon, with HS 578T breast, in the test with MDA-MB-231 breast and in the test on MOLT-4 leukemia was over 100 µM in each case. Moreover, the concentration for total growth inhibition (TGI) in the test with RXF 393 renal, with SF-295 CNS, with SW-620 colon and in the test on UACC-62 melanoma was over 100 µM in each case.
`CCOC(=O)c1c2cccccc-2nc1Nc1cccc2c(C)ccnc12`: the TGI with 786-0 renal, in the test with COLO 205 colon, in the test on HCT-116 colon, in the test with HS 578T breast, in the test with MDA-MB-231 breast and in the test with MOLT-4 leukemia was over 10 µM in each case. The TGI in the test with RXF 393 renal, in the test with SF-295 CNS, in the test with SW-620 colon and with UACC-62 melanoma was over 10 µM each time.
For `COc1ccc(C(=O)NCCN(C)C)c2nc3ccccc3cc12`, the TGI in the test on 786-0 renal stood at 12.1 µM; in the test with COLO 205 colon it was 2.57 µM; in the test with HCT-116 colon, 5.25 µM; in the test with HS 578T breast it was 4.91 µM; with MDA-MB-231 breast, 10.9 µM; in the test with MOLT-4 leukemia, 22.6 µM. Besides, the concentration for total growth inhibition (TGI) with RXF 393 renal stood at 6.67 µM; in the test with SF-295 CNS it was 6.34 µM; with SW-620 colon, 5.06 µM; with UACC-62 melanoma it was 4.62 µM.
Consider `O=C(CNc1ccc(Cl)cc1Cl)Nn1c(-c2ccccc2)nc2ccccc2c1=O`, for which the TGI in the test with 786-0 renal was 35.1 µM; with COLO 205 colon, 36.1 µM; in the test with HCT-116 colon it was 31.3 µM; in the test with HS 578T breast, 71.8 µM; in the test with MDA-MB-231 breast it was 36.7 µM; with MOLT-4 leukemia, 43.3 µM. The TGI worked out at 36.5 µM in the test on RXF 393 renal, 30.1 µM with SF-295 CNS, 34.4 µM in the test on SW-620 colon and 19.5 µM with UACC-62 melanoma.
Regarding `CCOC(=O)/C(C(C)=O)=C(\OC(C)=O)c1ccncc1C(=O)O`, the TGI in the test with 786-0 renal, with COLO 205 colon, in the test on HCT-116 colon, in the test with HS 578T breast, in the test with MDA-MB-231 breast and with MOLT-4 leukemia was over 100 µM each time. Besides, the TGI with RXF 393 renal, in the test on SF-295 CNS, in the test on SW-620 colon and in the test with UACC-62 melanoma was over 100 µM throughout.
On to `CC(C)(C)OC(=O)NC(CSSCC(NC(=O)OC(C)(C)C)C(=O)O)C(=O)O` (stereo not given), for which the concentration for total growth inhibition (TGI) in the test on 786-0 renal, in the test with COLO 205 colon, in the test with HCT-116 colon, in the test with HS 578T breast, with MDA-MB-231 breast and in the test on MOLT-4 leukemia was over 100 µM each time. Further, the TGI with RXF 393 renal, in the test on SF-295 CNS, with SW-620 colon and with UACC-62 melanoma was over 100 µM in each case.
Consider `CCOC(=O)CC/C(=N/Nc1ccc(Cl)cc1[N+](=O)[O-])C(=O)OCC`, for which the TGI with 786-0 renal, with COLO 205 colon, in the test on HCT-116 colon, in the test on HS 578T breast, with MDA-MB-231 breast and with MOLT-4 leukemia was over 100 µM in each case. The TGI in the test on RXF 393 renal, with SF-295 CNS, in the test with SW-620 colon and in the test on UACC-62 melanoma was over 100 µM each time.
`CC(C)N1CCN(c2ccc(OCC3COC(Cn4cncn4)(c4ccc(Cl)cc4Cl)O3)cc2)CC1` (stereo not given): the TGI in the test on 786-0 renal was determined as 14.5 µM; in the test on COLO 205 colon, 3.69 µM; in the test with HCT-116 colon, 23.4 µM; in the test with HS 578T breast, 31 µM; with MDA-MB-231 breast, 28.5 µM; with MOLT-4 leukemia, 28.8 µM. Besides, the TGI in the test on RXF 393 renal was 25 µM; in the test on SF-295 CNS, 26.6 µM; in the test on SW-620 colon it was 37.4 µM; in the test with UACC-62 melanoma, 5.66 µM.
As to `Cc1ccsc1/C=N/Nc1cnccn1`, the TGI in the test on 786-0 renal, in the test with COLO 205 colon, in the test with HCT-116 colon, in the test with HS 578T breast, with MDA-MB-231 breast and in the test on MOLT-4 leukemia was over 100 µM each time. Also, the total growth inhibition concentration (TGI) with RXF 393 renal, with SF-295 CNS, with SW-620 colon and with UACC-62 melanoma was over 100 µM each time.
For the compound `CCN(C(=O)N[C@@H](C)C(=O)N[C@@H](Cc1ccccc1)C(=O)OC)c1ccccc1`, the TGI in the test with 786-0 renal, with COLO 205 colon, in the test with HCT-116 colon, in the test with HS 578T breast, in the test on MDA-MB-231 breast and in the test on MOLT-4 leukemia was over 100 µM each time. Also, the TGI with RXF 393 renal, in the test with SF-295 CNS, with SW-620 colon and with UACC-62 melanoma was over 100 µM throughout.
Turning to `CCCCOCCOC1=C(Cl)C(=O)c2c(O)ccc(O)c2C1=O`, the concentration for total growth inhibition (TGI) with 786-0 renal was 0.505 µM; in the test on COLO 205 colon, 0.397 µM; in the test with HCT-116 colon, 0.841 µM; with HS 578T breast, 5.43 µM; in the test on MDA-MB-231 breast, 1.07 µM; in the test on MOLT-4 leukemia it was 1.96 µM. The concentration for total growth inhibition (TGI) in the test on RXF 393 renal stood at 0.668 µM; with SF-295 CNS it was 2.91 µM; in the test on SW-620 colon, 0.387 µM; in the test with UACC-62 melanoma, 2.64 µM.
`C=CCn1c(=O)ccn(/C(=C/C(=O)OCC)C(=O)OCC)c1=O`: the TGI with 786-0 renal was 11.7 µM; with COLO 205 colon, 3.97 µM; with HCT-116 colon, over 41.5 µM; with HS 578T breast, 73.4 µM; in the test with MDA-MB-231 breast, 26 µM; in the test with MOLT-4 leukemia it was 10.3 µM. Besides, the TGI is 28.5 µM in the test with RXF 393 renal, over 87.7 µM with SF-295 CNS, 6.57 µM in the test on SW-620 colon and 29.7 µM in the test on UACC-62 melanoma.
As for `O=C(O)c1cccc(S(=O)(=O)NN2C(=O)CSC2c2ccc(Cl)cc2Cl)c1` (stereo not given), the TGI in the test on 786-0 renal is 29.4 µM; in the test with COLO 205 colon, over 100 µM; in the test on HCT-116 colon it was 83.1 µM; in the test with HS 578T breast it was 58.4 µM; with MDA-MB-231 breast it was over 100 µM; with MOLT-4 leukemia it was over 100 µM. The TGI in the test with RXF 393 renal is over 100 µM; with SF-295 CNS, over 100 µM; in the test with SW-620 colon, over 100 µM; with UACC-62 melanoma, 86.3 µM.

The values are drawn from PubChem BioAssay (NCI).
